Patent US20040259783A1, “Pharmaceutical compositions of marine sponge microciona prolifera” (priority 2001, published 2004)

How the values were obtained:
[1] = system: rat aortic smooth muscle cells, A-10; assay: Smooth muscle cell migration in vitro assay (scrape injury); assay type: cell-based; conditions: concentration giving 100% inhibition of smooth muscle cell motility, incubation up to 24 hrs
Method: The following in vitro assays were conducted to illustrate the effect of peptides, carbohydrates and extract (2.7K) on the smooth muscle cell migration. The cells used in the following example were rat aortic smooth muscle cells, A-10. The cells were seeded at 2.5×10^5 cells/well in 6 well plates using Dulbecco's Modified Eagle Medium (Gibco BRL Cat. # 11885-084),10% FBS and 1% Antibiotic Antimycotic (Gibco BRL Cat. # 15240). Confluency of cells after about 8 hrs was between 80˜90%. Cells were injured with the single edge cell scraper (one injury/well) then washed twice with PBS and treated with peptides B-1 (SEQ ID NO:1), B-2 (SEQ ID NO:2 ), B-3 (SEQ ID NO: 3), B-6, (SEQ ID NO: 4), B-9(SEQ ID NO:5), B-10(SEQ ID NO:6) AND B-11(SEQ ID NO: 7) at concentrations ranging from 10 μg/ml ml to 100 μg/ml. Images were taken using a X5 modulation objective (Zeiss, Germany) attached to a Zeiss Axiovert 100 inverted microscope equipped with Hoffman Modulation contrast optical filters (Greenvale, N.Y.).
The images were taken at zero time and following the incubation of smooth muscle cells with peptide, carbohydrates and extracts for a period of up to 24 hrs (FIGS. 1, 2, 3 and 4).

[2] = system: EAE mouse model; assay: EAE mouse model (acute EAE induced with MBP and PTX); assay type: in vivo; conditions: 5 mg/kg daily; for clinical signs of MS symptoms: improvement in mean clinical score and delay in progression to disability; for mean clinical score: day 15, scale of 0 to 5, PBS treated mice 1.7 (B-9 study), 1.5 (B-1 study)
Method: The EAE mouse model is the standard animal model used for testing therapeutic compounds in the treatment of multiple sclerosis (MS). Acute EAE was induced by immunization of 3 months old SJL/J female mice (Jackson Lab.; Bar Harbor, Me.) with the MBP (myelin basic protein) and PTX (pertussis toxin). Each animal received an s.c. injection at tail base of 200 μg MBP in 0.1 ml of CFA and received an i.v. injection of 200 ng of PTX; pertussis toxin was injected again 48 hours later. Mice (4 animals per group) were treated with the peptide B-1 (SEQ ID NO: 1) or peptide B-9 (SEQ ID NO: 5) at a dose of 5 mg/kg daily; injections starting on the day of first immunization. Treatment was stopped at time of sacrifice. Mice were monitored daily from day 7 after immunization for clinical signs of EAE and were scored on a scale of 0 to 5. A score of 0 represented the absence of signs while a score of 5 was given to moribund animals.

[3] = MAF carbohydrates and MAF 2.7 K extract

Row | Molecule | 100% Inhibition of Cell Motility [1, 3] | 100% Inhibition of Cell Motility ([1]; MAFp3 peptides) | clinical signs of MS symptoms [2] | mean clinical score [2]
1 | CC(=O)N[C@H]1[C@H](O[C@@H]2[C@H](O)[C@H](C)OC(O)[C@H]2O)O[C@H](CO)[C@@H](O)[C@@H]1O (stereo partly shown) [RR-1 disaccharides, GlcNAcβ1-3Fuc] | 5˜10 μg/mL | – | – | –
2 | CC(=O)NC1C(OC2C(O)C(C)OC(O)C2O)OC(CO)C(OC2OC3COC(C)(C(=O)O)OC3C(O)C2O)C1O (stereo not shown) [RR-5 trisaccharides, (4,6-Pyr)Galβ1-4GlcNAcβ1-3Fuc] | 25 µg/mL | – | – | –
3 | CFLTPHGVELHK (artificial peptide derived from Microciona prolifera) [Peptide B-10, 12 amino acid synthetic peptide derived from MAF] | – | 100 µg/mL | – | –
4 | EDQLDAMNLS (artificial peptide derived from Microciona prolifera) [Peptide B-3, 10 amino acid synthetic peptide derived from MAF] | – | 50 µg/mL | – | –
5 | GSGIGDEPTTS (artificial peptide derived from Microciona prolifera) [Peptide B-6, 11 amino acid synthetic peptide derived from MAF] | – | 50˜75 μg/ml | – | –
6 | GVSVRRYRNRVRI (listed as Microciona prolifera) [Peptide B-1] | – | 100 µg/mL | significant attenuation | 0.7
7 | NGSIGPRGLPGVRGDRGKRGK (artificial peptide derived from Microciona prolifera) [Peptide B-11] | – | 75˜100 μg/ml | – | –
8 | RFVINITTSGSD (artificial peptide derived from Microciona prolifera) [Peptide B-9, 12 amino acid synthetic peptide derived from MAF] | – | 20 µg/mL | significant attenuation | 0.6
9 | VGFDPYDYEVNEADG (artificial peptide derived from Microciona prolifera) [Peptide B-2, 15 amino acid synthetic peptide, derived from MAF] | – | 50 to 100 µg/mL | – | –
